Here are results for one compound from publication PMC3954831, “Protection of Cardiomyocytes from the Hypoxia-Mediated Injury by a Peptide Targeting the Activator of G-Protein Signaling 8” (PLoS ONE, 2014).

Series [1] concerns cardiomyocytes. Briefly: MTT assay, viability of cardiomyocytes. Type of series: cell-based, Wistar rat. How it is done: Cardiomyocytes in 24-well culture plates were incubated in PBS (pH 7.4) containing 0.5 mg/ml MTT at 37°C. After for 2 h incubation, the PBS was removed and 100 µl of dimethyl sulfoxide (DMSO) was added to each well to solubilize dark blue formazan products. Absorbance of the colored solution was determined at 595 nm.
Here, we first examined the influence of the AGS8-peptide and gallein on the viability of cells. Cardiomyocytes were incubated with gallein for 24 h, and their viability was determined by MTT assay.
Figure 7 Effect of AGS8-peptide or Gallein on the viability of cardiomyocytes determined by MTT assay. Neonatal cardiomyocytes were cultured for 24-peptide or Gallein. […] N = 5 from 5 independent experiments.

Series [2] deals with connexin 43 (CX43) of cultured cardiomyocytes. As to conditions: gallein 100 µM; ref [13]; cited from earlier work. The source says: Gallein is an inhibitor of Gβγ-mediated signaling that occupies a “common” interaction surface of Gβγ and inhibits the interaction of Gβγ-regulated proteins with Gβγ [25]. Thus, gallein is expected to block a wide range of Gβγ signals in cells, including CX43 regulation mediated by AGS-Gβγ. We previously demonst ...

With `O=C1OC2(c3ccccc31)c1ccc(O)c(O)c1Oc1c2ccc(O)c1O` [gallein], in series [1] (MTT assay, 1 µM, 24 h, N = 5 independent experiments), the “cytotoxicity / viability of cardiomyocytes” value is reported as “caused damage in the cardiomyocytes”. Besides, the cytotoxicity under normoxia result in series [1] (normoxia) is “produced deleterious effects”. In series [2], the “inhibition of hypoxia-induced internalization of CX43” value is listed as “completely inhibits hypoxia-induced internalization of CX43”.
